Source: PubChem BioAssay (NCI)
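48-hour exposure; five concentrations; linearly interpolated endpoints. TGI: concentration producing complete growth inhibition.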

Legend:
Test in all cases: DTP human tumour cell line panel, 48 h
[1] = test system: 786-0 renal
[2] = test system: A498 renal
[3] = test system: A549 NSCLC
[4] = test system: ACHN renal
[5] = test system: CAKI-1 renal
[6] = test system: CCRF-CEM leukemia
[7] = test system: COLO 205 colon
[8] = test system: DU-145 prostate
[9] = test system: EKVX NSCLC
[10] = test system: HCC-2998 colon
[11] = test system: HCT-116 colon
[12] = test system: HCT-15 colon
[13] = test system: HL-60(TB) leukemia
[14] = test system: HOP-62 NSCLC
[15] = test system: HOP-92 NSCLC
[16] = test system: HS 578T breast
[17] = test system: HT29 colon
[18] = test system: IGROV1 ovarian
[19] = test system: K-562 leukemia
[20] = test system: KM12 colon
[21] = test system: LOX IMVI melanoma
[22] = test system: M14 melanoma
[23] = test system: MALME-3M melanoma
[24] = test system: MCF7 breast
[25] = test system: MDA-MB-435
[26] = test system: MDA-N
[27] = test system: MOLT-4 leukemia
[28] = test system: NCI-H23 lung
[29] = test system: NCI-H460 lung
[30] = test system: NCI-H522 lung
[31] = test system: NCI/ADR-RES ovarian
[32] = test system: OVCAR-3 ovarian
[33] = test system: OVCAR-4 ovarian
[34] = test system: OVCAR-5 ovarian
[35] = test system: OVCAR-8 ovarian
[36] = test system: PC-3 prostate
[37] = test system: RPMI-8226 leukemia
[38] = test system: RXF 393 renal
[39] = test system: SF-268 CNS
[40] = test system: SF-295 CNS
[41] = test system: SF-539 CNS
[42] = test system: SK-MEL-2 melanoma
[43] = test system: SK-MEL-28 melanoma
[44] = test system: SK-MEL-5 melanoma
[45] = test system: SK-OV-3 ovarian
[46] = test system: SNB-19 CNS
[47] = test system: SNB-75 CNS
[48] = test system: SR leukemia
[49] = test system: SW-620 colon
[50] = test system: T-47D breast
[51] = test system: TK-10 renal
[52] = test system: U251 CNS
[53] = test system: UACC-257 melanoma
[54] = test system: UACC-62 melanoma
[55] = test system: UO-31 renal
[56] = test system: BT-549 breast
[57] = test system: MDA-MB-231 breast
[58] = test system: NCI-H226 lung
[59] = test system: SN12C renal

Measured: TGI

COc1ccc(C2=C(Cl)C(=O)O/C2=C\c2ccc(OC)c(Br)c2)cc1Cl
30.6 µM: [41]
74.9 µM: [54]
38 µM: [39]
60.2 µM: [42]
57.5 µM: [30]
32 µM: [28]
51.8 µM: [35]
49.9 µM: [15]
30.8 µM: [14]
46.9 µM: [24]
47 µM: [32]
53.1 µM: [11]
36.6 µM: [52]
88.6 µM: [31]
35.1 µM: [40]
79.2 µM: [6]
39.1 µM: [1]
90.8 µM: [9]
40.2 µM: [4]
46.3 µM: [38]
52.9 µM: [2]
38.3 µM: [51]
80.6 µM: [46]
not listed: [56] | [57] | [58] | [59]
> 100 µM: all other assays above

O=C1NC(=S)NC(=O)C1C(c1ccc(Cl)cc1)C1C(=O)NC(=S)NC1=O
not listed: [10] | [16] | [39] | [41] | [45] | [47] | [48]
> 100 µM: all other assays above
